Assays:
[1] = tested on: BMDM (murine C3aR); type: cell-based, mouse
Procedure: (§1) Mouse bone marrow-derived macrophages (BMDMs) were obtained and cultured as previously described ([20], [21]). All experiments using mice were approved by the University of Queensland animal ethics committee. Wild-type and C3aR^-/- mice on a C57BL/6J genetic background (n = 3) were sacrificed by cervical dislocation. The tibia was removed and sterilised. Upon removal of both epiphyses, bone marrow cells were harvested by flushing the central cavity with complete RPMI-1640 medium using a 10 ml syringe attached to a 25-gauge needle. Cells were then cultured in complete RPMI-1640 medium (containing 10 % FBS, 100 IU/ml penicillin, 100 μg/ml streptomycin) supplemented with 100 ng/ml recombinant human macrophage colony stimulating factor on 10 mm square dishes. Mature adherent macrophages for assays were harvested on day 6-7 by gentle scraping.
Ligand-induced ERK1/2 phosphorylation was assessed using the AlphaLISA Surefire Ultra p-ERK1/2 (Thr202/Tyr204) kit (PerkinElmer, Melbourne, Australia) following the manufacturer’s protocol as previously described ([18], [20], [22]). Briefly, CHO-K1, CHO-C3aR, CHO-C5aR1, HMDMs (50,000/well) or BMDMs (90,000/well) were seeded in tissue culture-treated 96-well plates (Corning, Corning, USA) for 24 h and serum-starved overnight. All ligand dilutions were prepared in serum-free medium (SFM) containing 0.1% BSA. For inhibition assays, cells were pre-treated with the following ligands (5 µM SB290157, or respective concentrations of hC3a, mC3a, hC5a, hTLQP-21, and mTLQP-21) or the solvent-only control for 30 min before agonist (hC3a, hTLQP-21 and mTLQP-21) addition. The concentration and identity of the ligands are described in detail in the figure legends. For stimulation, cells were treated with ligands at the indicated concentrations for 10 min at RT and then immediately lysed using AlphaLISA lysis buffer on a microplate shaker (450 rpm, 10 min). For the detection of phospho-ERK1/2 content, cell lysate (5 μL/well) was transferred to a 384-well ProxiPlate (PerkinElmer, Melbourne, Australia) and added to the donor and acceptor reaction mix (2.5 μL/well, respectively), followed by a 2-h incubation at RT in the dark. On a Tecan Spark 20M (Tecan, Männedorf, Switzerland), the plate was measured using standard AlphaLISA settings.
All experiments were conducted in triplicates and repeated on three separate occasions unless otherwise specified. Data was analysed using GraphPad software (Prism 9.1). Data from each individual repeat was normalised accordingly (as specified in the figure legends) before being combined and expressed as mean ± standard error of the mean (S.E.M.) unless otherwise described. For all dose-response studies, logarithmic concentration-response curves were plotted using combined data and analysed to determine the respective potency values. Statistical analysis was performed using two-way ANOVA with Dunnett’s post hoc analysis. Donor-matched comparisons were made for HMDM experiments. Differences were deemed significant when p < 0.05.
Figure 4 TLQP-21 triggers ERK signalling through C3aR in murine bone marrow-derive macrophages. BMDMs (90,000/well) from wildtype mice (A) or with C3aR knockout mice (B), were serum-starved overnight and then stimulated with respective ligands at the indicated concentrations for 10 min. The phospho-ERK1/2 content in the cell lysate was measured and normalised to the medium only-treated levels before being combined. Data represent mean ± S.E.M. of triplicate measurements using cells from 3 mice (n = 3).

[2] = tested on: HMDMs; experiment: homologous desensitisation control in HMDMs; type: cell-based, human; conditions: pre-treatment 10 nM hC3a, 10 μM hTLQP-21 or mTLQP-21 for 30 min, then same ligand 10 min
Description: HMDMs were generated and cultured as previously described ([20]), with experiments approved by The University of Queensland Human Research Ethics Committee. Briefly, human buffy coat blood from anonymous healthy donors was obtained through the Australian Red Cross Blood Service (Brisbane, Australia). Human CD14+ monocytes were isolated from blood using Lymphoprep density centrifugation (STEMCELL, Melbourne, Australia) followed by CD14+ MACS magnetic bead separation (Miltenyi Biotec, Sydney, Australia). […]
(§2) Ligand-induced ERK1/2 phosphorylation was assessed using the AlphaLISA Surefire Ultra p-ERK1/2 (Thr202/Tyr204) kit (PerkinElmer, Melbourne, Australia) following the manufacturer’s protocol as previously described ([18], [20], [22]). […] On a Tecan Spark 20M (Tecan, Männedorf, Switzerland), the plate was measured using standard AlphaLISA settings.
Figure 3 Agonistic and antagonistic activities of hTLQP-21 and mTLQP-21 in human monocyte-derived macrophages. […] The phospho-ERK1/2 content in the cell lysate was measured and normalised to the maximum hC3a/hC5a-induced levels before being combined. […]

[3] = tested on: C3aR-deficient BMDMs; experiment: phospho-ERK1/2 assay in C3aR-deficient BMDMs; type: cell-based, mouse; conditions: 10 min stimulation; n = 3 mice
Procedure: as §1, with “Mature adherent macrophages for assays were harvested on day 6-7 by gentle scraping.” left out
as §2
Figure 4 TLQP-21 triggers ERK signalling through C3aR in murine bone marrow-derive macrophages. […] The phospho-ERK1/2 content in the cell lysate was measured and normalised to the medium only-treated levels before being combined. […]

C3a: Table 1 label: human C3a in CHO-C3aR and HMDM, recombinant mouse C3a in BMDM
% C3a activity ± SE, BMDM ([1]; relative to mC3a, wild-type BMDMs): 100 ± 4.1% | logEC50 ± SE (pERK1/2), BMDM ([1]; wild-type BMDMs, 10 min stimulation at RT, C3a is recombinant mouse C3a): -8.1 ± 0.1 | EC50 ([1]; wild-type C57BL/6J BMDMs, 90,000/well, 10 min stimulation at RT, AlphaLISA p-ERK1/2, n = 3 mice, C3a is recombinant mouse C3a, read-out: EC50 (pERK1/2), BMDM): 8.4 nM

hC3a: purified (plasma-derived) human C3a, purchased from Merck
homologous desensitisation of ERK activity [2]: significantly dampened the subsequent ERK activity triggered by these ligands | ERK signalling in C3aR-deficient BMDMs [3]: Neither hC3a, nor the TLQP-21 peptides caused any significant ERK signalling activity in C3aR-deficient cells
